9 molecules from patent US10004701B2, “Methods and compositions for treating infection” (UNIVERSITY OF ROCHESTER, priority 2012, dated 2018) can be followed below.

What all share (test): AK assay 384-well format, Prestwick library screening
For one experiment, the system named is E. cloacae. The class given is cell-based, Enterobacter cloacae. The note with it: 50 μM final drug concentration; for fold induction at 50 µM: Enterobacter cloacae, 3 h.
Experiment [1] concerns A. baumannii strain 98-37-09. The class given is cell-based, Acinetobacter baumannii. The conditions noted are these: 50 μM final drug concentration; for fold induction at 50 µM: Acinetobacter baumannii, 983709, 3 h.
Another experiment has as its system E. coli. It counts as cell-based, Escherichia coli. The conditions noted are these: 50 μM final drug concentration; for fold induction at 50 µM: Escherichia coli, 3 h.
For another experiment, the system named is K. pneumoniae. The class given is cell-based, Klebsiella pneumoniae. The conditions noted are these: 50 μM final drug concentration; for fold induction at 50 µM: Klebsiella pneumoniae, 3 h.
A further experiment relates to E. faecium. It counts as cell-based, Enterococcus faecium. The note with it: 50 μM final drug concentration; for fold induction at 50 µM: Enterococcus faecium, 3 h.
Experiment [2] relates to S. aureus strain USA300-0114. It counts as cell-based, Staphylococcus aureus. The conditions noted are these: 50 μM final drug concentration; for fold induction at 50 µM: Staphylococcus aureus, USA300, 3 h.
In a further experiment the test system is P. aeruginosa. The class given is cell-based, Pseudomonas aeruginosa. The note with it: 50 μM final drug concentration; for fold induction at 50 µM: Pseudomonas aeruginosa, 3 h.
Setting [3] is: 384-well format, cutoff for positive-scoring molecules 3-fold increase.
Where [4] appears, read: cutoff for positive-scoring molecules 3-fold increase, read-out: AK-based Prestwick Library Screening Results, E. cloacae (fold increase in extracellular AK activity).
[5] abbreviates: cutoff for positive-scoring molecules 3-fold increase, read-out: AK-based Prestwick Library Screening Results, A. baumannii (fold increase in extracellular AK activity).
The mark [6] stands for this setting: cutoff for positive-scoring molecules 3-fold increase, read-out: AK-based Prestwick Library Screening Results, E. coli (fold increase in extracellular AK activity).
Setting [7] is: cutoff for positive-scoring molecules 3-fold increase, read-out: AK-based Prestwick Library Screening Results, K. pneumoniae (fold increase in extracellular AK activity).
The mark [8] stands for this setting: cutoff for positive-scoring molecules 3-fold increase, read-out: AK-based Prestwick Library Screening Results, E. faecium (fold increase in extracellular AK activity).
Where [9] appears, read: cutoff for positive-scoring molecules 3-fold increase, read-out: AK-based Prestwick Library Screening Results, S. aureus (fold increase in extracellular AK activity).
[10] abbreviates: cutoff for positive-scoring molecules 3-fold increase, read-out: AK-based Prestwick Library Screening Results, P. aeruginosa (fold increase in extracellular AK activity).
Setting [11] is: planktonic E. cloacae, cutoff for positive-scoring molecules 3-fold increase, read-out: AK-based Prestwick Library Screening Results, E. cloacae (increase in extracellular AK activity).
Setting [12] is: planktonic A. baumannii, cutoff for positive-scoring molecules 3-fold increase, read-out: AK-based Prestwick Library Screening Results, A. baumannii (increase in extracellular AK activity).
Setting [13] is: planktonic E. coli, cutoff for positive-scoring molecules 3-fold increase, read-out: AK-based Prestwick Library Screening Results, E. coli (increase in extracellular AK activity).
Setting [14] is: planktonic K. pneumoniae, cutoff for positive-scoring molecules 3-fold increase, read-out: AK-based Prestwick Library Screening Results, K. pneumoniae (increase in extracellular AK activity).
[15] abbreviates: planktonic E. faecium, cutoff for positive-scoring molecules 3-fold increase, read-out: AK-based Prestwick Library Screening Results, E. faecium (increase in extracellular AK activity).
[16] abbreviates: planktonic S. aureus, cutoff for positive-scoring molecules 3-fold increase, read-out: AK-based Prestwick Library Screening Results, S. aureus (increase in extracellular AK activity).
Where [17] appears, read: planktonic P. aeruginosa, cutoff for positive-scoring molecules 3-fold increase, read-out: AK-based Prestwick Library Screening Results, P. aeruginosa (increase in extracellular AK activity).

Where a name gives a salt, the structure may show the parent alone. Read-outs that look alike come from different tables or passages of the source.

`OCC(O)CN1CCN(c2ccccc2)CC1` (racemic) [Dropropizine (R,S)]: the “AK-based Prestwick Library Screening Results, E. cloacae (increase in extracellular AK activity)” value in the experiment on E. cloacae (setting [3]) stood at 0.5. Further, the “AK-based Prestwick Library Screening Results, A. baumannii (increase in extracellular AK activity)” value in experiment [1] (setting [3]) amounted to 0.5. The “AK-based Prestwick Library Screening Results, E. coli (increase in extracellular AK activity)” value in the experiment on E. coli (setting [3]) came to 0.7. The “AK-based Prestwick Library Screening Results, K. pneumoniae (increase in extracellular AK activity)” value with K. pneumoniae (setting [3]) came to 0.5. For the same molecule, in the experiment on E. faecium (setting [3]), the “AK-based Prestwick Library Screening Results, E. faecium (increase in extracellular AK activity)” value was 0.9. For the same molecule, in experiment [2] (setting [3]), the “AK-based Prestwick Library Screening Results, S. aureus (increase in extracellular AK activity)” value is 0.5. Further, the “AK-based Prestwick Library Screening Results, P. aeruginosa (increase in extracellular AK activity)” value in the experiment on P. aeruginosa (setting [3]) is 0.5.
As for `CC(=O)Nc1ccc(O)cc1` [Acetaminophen], the fold induction at 50 µM is 1.6 with E. cloacae (setting [4]); 1.5 in experiment [1] (setting [5]); 1.4 with E. coli (setting [6]); 1.2 in the experiment on K. pneumoniae (setting [7]); 1 with E. faecium (setting [8]); 1.6 in experiment [2] (setting [9]). In addition, the fold induction at 50 µM with P. aeruginosa (setting [10]) is 1.1.
Regarding `CC1(C)S[C@@H]2[C@H](NC(=O)[C@H](N)c3ccccc3)C(=O)N2[C@H]1C(=O)O` [Ampicillin trihydrate], the fold induction at 50 µM was 3.5 with E. cloacae (384-well format, cutoff for positive-scoring molecules 3-fold increase, read-out: AK-based Prestwick Library Screening Results, E. cloacae (increase in extracellular AK activity)); 1.6 in experiment [1] (384-well format, cutoff for positive-scoring molecules 3-fold increase, read-out: AK-based Prestwick Library Screening Results, A. baumannii (increase in extracellular AK activity)); 12.2 in the experiment on E. coli (384-well format, cutoff for positive-scoring molecules 3-fold increase, read-out: AK-based Prestwick Library Screening Results, E. coli (increase in extracellular AK activity)); 0.6 in the experiment on K. pneumoniae (384-well format, cutoff for positive-scoring molecules 3-fold increase, read-out: AK-based Prestwick Library Screening Results, K. pneumoniae (increase in extracellular AK activity)); 1.1 with E. faecium (384-well format, cutoff for positive-scoring molecules 3-fold increase, read-out: AK-based Prestwick Library Screening Results, E. faecium (increase in extracellular AK activity)); 0.5 in experiment [2] (384-well format, cutoff for positive-scoring molecules 3-fold increase, read-out: AK-based Prestwick Library Screening Results, S. aureus (increase in extracellular AK activity)). Moreover, in the experiment on P. aeruginosa (384-well format, cutoff for positive-scoring molecules 3-fold increase, read-out: AK-based Prestwick Library Screening Results, P. aeruginosa (increase in extracellular AK activity)), the fold induction at 50 µM was determined as 0.7.
Regarding `O=C(O)Cc1ccccc1Nc1c(Cl)cccc1Cl` [Diclofenac sodium], the fold induction at 50 µM was found to be 1.2 with E. cloacae (setting [11]); 0.8 in experiment [1] (setting [12]); 0.9 in the experiment with E. coli (setting [13]); 0.7 in the experiment with K. pneumoniae (setting [14]); 0.9 in the experiment on E. faecium (setting [15]); 0.8 in experiment [2] (setting [16]). In addition, in the experiment on P. aeruginosa (setting [17]), the fold induction at 50 µM was determined as 0.9.
On to `CN(C)CCCO[C@@H]1[C@H]2OC(C)(C)O[C@H]2O[C@@H]1[C@H](O)CO` [Amiprilose hydrochloride], for which the fold induction at 50 µM in the experiment on E. cloacae (setting [4]) was 1.5; in experiment [1] (setting [5]), 1.2; in the experiment with E. coli (setting [6]) it was 1.3; in the experiment with K. pneumoniae (setting [7]), 0.9; with E. faecium (setting [8]), 1.1; in experiment [2] (setting [9]), 1.3. Moreover, in the experiment on P. aeruginosa (setting [10]), the fold induction at 50 µM is 1.1.
As for `CC(C)NCC(O)COc1ccc(COCCOC(C)C)cc1` (stereo not drawn) [Bisoprolol fumarate], the fold induction at 50 µM with E. cloacae (planktonic E. cloacae, 384-well, cutoff for positive-scoring molecules 3-fold increase, read-out: AK-based Prestwick Library Screening Results: E. cloacae (increase in extracellular AK activity)) was found to be 0.6; in experiment [1] (planktonic A. baumannii, 384-well, cutoff for positive-scoring molecules 3-fold increase, read-out: AK-based Prestwick Library Screening Results: A. baumannii (increase in extracellular AK activity)), 0.5; in the experiment on E. coli (planktonic E. coli, 384-well, cutoff for positive-scoring molecules 3-fold increase, read-out: AK-based Prestwick Library Screening Results: E. coli (increase in extracellular AK activity)), 0.5; in the experiment on K. pneumoniae (planktonic K. pneumoniae, 384-well, cutoff for positive-scoring molecules 3-fold increase, read-out: AK-based Prestwick Library Screening Results: K. pneumoniae (increase in extracellular AK activity)), 0.5; in the experiment with E. faecium (planktonic E. faecium, 384-well, cutoff for positive-scoring molecules 3-fold increase, read-out: AK-based Prestwick Library Screening Results: E. faecium (increase in extracellular AK activity)), 0.9; in experiment [2] (planktonic S. aureus, 384-well, cutoff for positive-scoring molecules 3-fold increase, read-out: AK-based Prestwick Library Screening Results: S. aureus (increase in extracellular AK activity)), 0.6. Also, in the experiment with P. aeruginosa (planktonic P. aeruginosa, 384-well, cutoff for positive-scoring molecules 3-fold increase, read-out: AK-based Prestwick Library Screening Results: P. aeruginosa (increase in extracellular AK activity)), the fold induction at 50 µM is 0.5.
With `NS(=O)(=O)c1cc(C2(O)NC(=O)c3ccccc32)ccc1Cl` (stereo not drawn) [Chlorthalidone], the fold induction at 50 µM is 1 in the experiment on E. cloacae (setting [11]); 0.8 in experiment [1] (setting [12]); 0.9 with E. coli (setting [13]); 0.6 in the experiment with K. pneumoniae (setting [14]); 0.9 in the experiment with E. faecium (setting [15]); 0.7 in experiment [2] (setting [16]). In the experiment on P. aeruginosa (setting [17]), the fold induction at 50 µM was determined as 0.8.
For `O=C1C[C@@H](c2ccc(O)cc2)Oc2cc(O)cc(O)c21` [Naringenine], the fold induction at 50 µM in the experiment on E. cloacae (planktonic, cutoff for positive 3-fold increase, read-out: AK-based Prestwick Library Screening Results, E. cloacae (fold increase in extracellular AK activity)) was determined as 1.5; in experiment [1] (planktonic, cutoff for positive 3-fold increase, read-out: AK-based Prestwick Library Screening Results, A. baumannii (fold increase in extracellular AK activity)), 1.2; in the experiment on E. coli (planktonic, cutoff for positive 3-fold increase, read-out: AK-based Prestwick Library Screening Results, E. coli (fold increase in extracellular AK activity)), 1.1; in the experiment with K. pneumoniae (planktonic, cutoff for positive 3-fold increase, read-out: AK-based Prestwick Library Screening Results, K. pneumoniae (fold increase in extracellular AK activity)), 0.9; with E. faecium (planktonic, cutoff for positive 3-fold increase, read-out: AK-based Prestwick Library Screening Results, E. faecium (fold increase in extracellular AK activity)), 0.9; in experiment [2] (planktonic, cutoff for positive 3-fold increase, read-out: AK-based Prestwick Library Screening Results, S. aureus (fold increase in extracellular AK activity)), 0.5. Moreover, in the experiment on P. aeruginosa (planktonic, cutoff for positive 3-fold increase, read-out: AK-based Prestwick Library Screening Results, P. aeruginosa (fold increase in extracellular AK activity)), the fold induction at 50 µM amounted to 1.
As for `CN1CCc2cc3c(cc2[C@H]1[C@@H]1OC(=O)c2c1ccc1c2OCO1)OCO3` [Bicuculline (+)], the “AK-based Prestwick Library Screening Results, E. cloacae (increase in extracellular AK activity)” value in the experiment with E. cloacae (planktonic E. cloacae, […]) was found to be 0.9. Also, the “AK-based Prestwick Library Screening Results, A. baumannii (increase in extracellular AK activity)” value in experiment [1] (planktonic A. baumannii, […]) is reported as 0.8. The “AK-based Prestwick Library Screening Results, E. coli (increase in extracellular AK activity)” value with E. coli (planktonic E. coli, […]) was determined as 0.8. Besides, the “AK-based Prestwick Library Screening Results, K. pneumoniae (increase in extracellular AK activity)” value with K. pneumoniae (planktonic K. pneumoniae, […]) came to 0.8. Further, the “AK-based Prestwick Library Screening Results, E. faecium (increase in extracellular AK activity)” value in the experiment on E. faecium (planktonic E. faecium, […]) was determined as 0.9. In addition, in experiment [2] (planktonic S. aureus, […]), the “AK-based Prestwick Library Screening Results, S. aureus (increase in extracellular AK activity)” value was found to be 0.6. In addition, in the experiment on P. aeruginosa (planktonic P. aeruginosa, […]), the “AK-based Prestwick Library Screening Results, P. aeruginosa (increase in extracellular AK activity)” value was 0.9.
